As usually defined, the IC50 is the concentration that inhibits the measured activity by half. A high value points to weaker potency in that assay.

In assay [1] the target is T1, adenosine A1 receptor (Rattus norvegicus, UniProt P25099).
T1 construct: Whole brain minus cerebellum and brainstem from male Long Evans rats; from tissue; host or cells: rat whole brain minus cerebellum and brainstem (male Long Evans), membranes
T1 sequence (P25099 1-326): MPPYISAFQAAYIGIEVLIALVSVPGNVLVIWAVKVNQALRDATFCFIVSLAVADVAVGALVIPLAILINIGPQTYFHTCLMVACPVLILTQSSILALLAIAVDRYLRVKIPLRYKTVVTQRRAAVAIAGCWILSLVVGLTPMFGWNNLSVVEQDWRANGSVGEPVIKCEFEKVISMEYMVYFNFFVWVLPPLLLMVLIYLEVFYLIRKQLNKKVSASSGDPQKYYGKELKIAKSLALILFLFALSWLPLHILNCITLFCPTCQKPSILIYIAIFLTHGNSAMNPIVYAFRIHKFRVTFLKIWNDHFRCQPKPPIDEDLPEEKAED
Description: Adenosine Receptor Binding--A1 Receptor Affinity (RBA1), [3H]-CHA binding, rat whole brain membranes. Further details: species or system rat (male Long Evans). The note with it: 1.0 nM [3H]-CHA, 25° C., 1 h. On the procedure:
Adenosine Receptor Binding--A1 Receptor Affinity (RBA1)
Whole brain minus cerebellum and brainstem from male Long Evans rats (150-200 g) was homogenized in 30 volumes of ice-cold 0.05M Tris-HCl buffer pH 7.7 using a Brinkman Polytron PT-10, (setting number 6 for 20 seconds) and centrifuged for ten minutes at 20,000×g (Sorvall RC-2), 4° C. The supernatant was discarded, and the pellet was resuspended and centrifuged as before. The pellet was resuspended in 20 ml Tris-HCl buffer containing two International Units/ml of adenosine deaminase (Sigma type III from calf intestinal mucosa), incubated at 37° C. for 30 minutes, then subsequently at 0° C. for ten minutes. The homogenate was again centrifuged, and the final pellet was resuspended in ice-cold 0.05M Tris-HCl buffer pH 7.7 to a concentration of 20 mg/ml original wet tissue weight and used immediately.
Tissue homogenate (10 mg/ml) was incubated in 0.05M Tris-HCl buffer pH 7.7 containing 1.0 nM [^3 H]-N^6 -cyclohexyladenosine[^3 H]-CHA) with or without test agents in triplicate for one hour at 25° C. Incubation volume was 2 ml. Unbound [^3 H]-CHA was separated by rapid filtration under reduced pressure through Whatman glass fiber (GF/B) filters. The filters were rinsed three times with 5 ml of ice cold 0.05M Tris-HCl buffer pH 7.7. The radio-labeled ligand retained on the filter was measured by liquid scintillation spectrophotometry after shaking the filters for one hour or longer on a mechanical shaker in 10 ml of Beckman Ready-Solv HP scintillation cocktail.
Nonspecific binding was defined as the binding which occurred in the presence of 1 mM theophylline. The concentration of test agent which inhibited 50% of the specific binding (IC50) was determined by nonlinear computer curve fit. The Scatchard plot was calculated by linear regression of the line obtained by plotting the amount of radioligand bound (pmoles/gram of tissue) [formula] Since the amount of radioligand bound was a small fraction of the total amount added, free radioligand was defined as the concentration (nM) of radioligand added to the incubation mixture. The Hill coefficient was calculated by linear regression of the line obtained by plotting the log of the bound radioligand vs the log of the [formula] The maximal number of binding sites (Bmax) was calculated from the Scatchard plot.

A short description of assay [2]: Mouse Activity and Screen Test (MAST), screen test failure (ST). The class given is in vivo, mouse (Swiss-Webster, male). The conditions noted are these: Mus musculus, ip; lowest dose at which an A rating is achieved; screen test; intraperitoneal, 1 h prior to testing; read-out: MAST ST LAD. On the procedure: Treatments are administered intraperitoneally one hour prior to testing. […] Compounds are dissolved or suspended in 0.2% Methocel. Control animals are injected with Methocel.
The compounds are identified in the Examples.

The target in assay [3] is T2, adenosine A2 receptor (Rattus norvegicus, UniProt P30543).
T2 construct: 5 mg original tissue weight of rat weight of rat striatal membranes; tissue Pel-Freez (Rogers, Ark.) for the brains; host or cells: rat striatum (Sprague-Dawley; Long-Evans gave essentially identical results), membranes
T2 sequence (P30543 whole entry): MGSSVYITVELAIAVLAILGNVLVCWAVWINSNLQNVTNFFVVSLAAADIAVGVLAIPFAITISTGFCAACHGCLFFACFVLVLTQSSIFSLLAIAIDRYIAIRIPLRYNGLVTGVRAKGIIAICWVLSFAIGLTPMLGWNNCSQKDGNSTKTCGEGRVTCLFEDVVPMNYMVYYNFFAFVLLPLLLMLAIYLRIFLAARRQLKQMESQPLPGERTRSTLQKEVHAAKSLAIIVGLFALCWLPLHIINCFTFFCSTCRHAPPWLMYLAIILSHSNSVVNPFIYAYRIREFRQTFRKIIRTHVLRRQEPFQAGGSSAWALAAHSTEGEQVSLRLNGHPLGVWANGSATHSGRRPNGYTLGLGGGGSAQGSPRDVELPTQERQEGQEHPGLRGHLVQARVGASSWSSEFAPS
Put plainly: Adenosine Receptor Binding--A2 Receptor Affinity (RBA2), [3H]NECA binding, rat striatal membranes. The note with it: 4 nM [3H]NECA, 50 nM N6-cyclopentyladenosine, 25° C., 60 min. Details: species or system rat (mixed sex Sprague-Dawley; male Long-Evans). On the procedure: Adenosine Receptor Binding--A2 Receptor Affinity (RBA2)
Brains from 200-500 g mixed sex Sprague-Dawley rats were purchased from Pel-Freez (Rogers, Ark.). […] Brains were thawed and then kept on ice while the striata were dissected out. Striata were disrupted in 10 vol of ice-cold 50 mM Tris.HCl (pH 7.7 at 25° C., pH 8.26 at 5° C.) (Tris) for 30 seconds in a Polytron PT-10 (Brinkmann) at setting 5. The suspension was centrifuged at 50,000 xg for ten minutes, the supernatant discarded, the pellet resuspended in 10 vol ice-cold Tris as above, recentrifuged, resuspended at 1 g/5 ml, and stored in plastic vials at -70° C. […] When needed, tissue was thawed at room temperature, disrupted in a Polytron, and kept on ice until used.
Test compounds were dissolved at 10 mM in dimethylsulfoxide on the same day as the experiment, and diluted in dimethylsulfoxide to 100× the final incubation concentration. […] [^3 H]NECA was diluted to 40 nM in Tris. […] After all additions, the rack of tubes was vortexed, and the tubes were then incubated for 60 min at 25° C. in a shaking water bath. The rack of tubes was vortexed an additional time halfway through the incubation.
Incubations were terminated by filtration through 2.4 cm GF/B filters under reduced pressure. Each tube was filtered as follows: the contents of the tube were poured onto the filter, 4 ml of ice-cold Tris were added to the tube and the contents poured onto the filter, and the filter was washed twice with 4 ml of ice-cold Tris. The filtration was complete in about twelve seconds. Filters were put in scintillation vials, 8 ml of Formula 947 scintillation fluid added, and the vials left overnight, shaken, and counted in a liquid scintillation counter at 40% efficiency.
The IC50 was calculated by weighted nonlinear least squares curve-fitting to the mass-action equation. [formula] where Y is cpm bound
T is cpm total binding without drug
S is cpm specific binding without drug
D is the concentration of drug
K is the IC50 of the drug
Weighting factors were calculated under the assumption that the standard deviation was proportional to the predicted value of Y. Nonspecific binding was treated as a very large (infinite) concentration of drug in the computer analysis.

With `CC(CNc1nc(N)nc2c1ncn2[C@@H]1O[C@H](CO)[C@@H](O)[C@H]1O)(c1ccccc1)c1ccccc1` [Example 21, N^6-(2,2-Diphenylpropyl)-2-aminoadenosine], the results for the IC50 in assay [1] and in assay [3] were 285 nM and 470 nM, respectively. The minimal effective dose in assay [2] was greater than 100 mg/kg.

As to `OC[C@H]1O[C@@H](n2cnc3c(NCC(O)(c4ccccc4)c4ccccc4)ncnc32)[C@H](O)[C@@H]1O` [Example 22, N^6-(2,2-Diphenyl-2-hydroxyethyl)adenosine], the IC50 in assay [1] was 12 nM; in assay [3] it was 94 nM. Further, the minimal effective dose in assay [2] was 100 mg/kg.

Consider `Nc1nc(NCC(O)(c2ccccc2)c2ccccc2)c2ncn([C@@H]3O[C@H](CO)[C@@H](O)[C@H]3O)c2n1` [Example 23, N^6-(2,2-Diphenyl-2-hydroxyethyl)-2-aminoadenosine], for which the IC50 in assay [1] was 69 nM; in assay [3], 293 nM. In addition, the minimal effective dose in assay [2] was greater than 100 mg/kg.

Turning to `COC(=O)C(CNc1ncnc2c1ncn2[C@@H]1O[C@H](CO)[C@@H](O)[C@H]1O)(c1ccccc1)c1ccccc1` [Example 24, N^6-(2-Carbomethoxy-2,2-diphenylethyl)adenosine], the results for the IC50 in assay [1] and in assay [3] were 79 nM and 4600 nM, respectively. Moreover, in assay [2], the minimal effective dose is greater than 30 mg/kg.

Take `CC(=O)OC[C@H]1O[C@@H](n2cnc3c(NCC(c4ccccc4)c4ccccc4)ncnc32)[C@H](OC(C)=O)[C@@H]1OC(C)=O` [Example 25, 2',3',5'-Tri-O-acetyl-N^6-(2,2-diphenylethyl)adenosine]: the figures for the IC50 in assay [1] and in assay [3] were 53 nM and 166 nM, respectively. In assay [2], the minimal effective dose is greater than 100 mg/kg.

Consider `O=C(OC[C@H]1O[C@@H](n2cnc3c(NCC(c4ccccc4)c4ccccc4)ncnc32)[C@H](OC(=O)c2ccccc2)[C@@H]1OC(=O)c1ccccc1)c1ccccc1` [Example 26, 2',3',5'-Tri-O-benzoyl-N^6-(2,2-diphenylethyl)adenosine], for which the IC50 in assay [1] was found to be 1230 nM; in assay [3], 3840 nM. Moreover, the minimal effective dose in assay [2] is greater than 100 mg/kg.

Take `CC(=O)OC[C@H]1O[C@@H](n2cnc3c(NCC(c4ccccc4)c4ccccc4)nc(Cl)nc32)[C@H](OC(C)=O)[C@@H]1OC(C)=O` [Example 27, 2',3',5'-Tri-O-acetyl-N^6-(2,2-diphenylethyl)-2-chloroadenosine]: the IC50 in assay [1] turned out to be 30900 nM; in assay [3] it was 6820 nM. The minimal effective dose in assay [2] was greater than 100 mg/kg.

Take `CC1(C)O[C@@H]2[C@H](O1)[C@@H](CO)O[C@H]2n1cnc2c(NCC(c3ccccc3)c3ccccc3)ncnc21` [Example 29, 2',3'-O-Isopropylidene-N^6-(2,2-diphenylethyl)adenosine]: the IC50 in assay [1] came out at 242 nM; in assay [3] it was 919 nM. Also, in assay [2], the minimal effective dose is greater than 100 mg/kg.

These data come from patent publication US4657897A, “N^6 -substituted adenosines for treating pain” (Warner-Lambert Company, priority 1985, dated 1987).
